Assay results: patent publication US12667824B2, “Carbon dioxide absorbent” (MITSUBISHI GAS CHEMICAL COMPANY, INC., priority 2020, dated 2026)
Read-outs that look alike come from different tables or passages of the source.

What was measured:
[1] = Acid dissociation constant (pKa) of amine compound by acid-base titration; type: physicochemical; settings: in purified water, 25±2° C.
Procedure: The acid dissociation constant of the amine compound was determined by the following method. • (1) Dissolving 0.2 g of the amine compound in 30 mL of the purified water. • (2) Calculating the acid dissociation constant (pKa) by titrating the solution obtained in the above (1) with the 0.1 N perchloric acid-acetic acid solution using the automatic potentiometric titrator (AT-610 produced by Kyoto Electronics Manufacturing Co., Ltd.).
Still, let the temperature at the time of measurement be 25±2° C.

[2] = Amine value of amine compound (JIS K7237-1995 titration); type: physicochemical; settings: 0.1 N perchloric acid-acetic acid titration
Procedure: The amine value was measured by the following measurement method in accordance with JIS K7237-1995. • (1) Dissolving 0.1 g of the amine compound in 20 mL of the acetic acid. • (2) Calculating the amine value by titrating the solution obtained in the above (1) with the 0.1 N perchloric acid-acetic acid solution using the automatic potentiometric titrator (AT-610 produced by Kyoto Electronics Manufacturing Co., Ltd.).

[3] = Maximum endothermic temperature of amine compound (DSC, volatilization); type: physicochemical; settings: DSC 23 to 350° C., 10° C./min, nitrogen; volatilization of the amine compound
Procedure: DSC measurements were performed on the amine compounds used in Examples and Comparative Examples to measure the maximum endothermic temperature of the amine compounds as follows. First, a differential scanning calorimetry was performed on the amine compounds using a differential thermogravimetric analyzer (Product Name: DTG-60 produced by Shimadzu Corporation) under conditions of 23 to 350° C. of a measurement temperature range, 10° C./min of a heating rate, and a nitrogen atmosphere. From the DSC curve obtained thereby, the temperature at which the endothermic amount associated with the volatilization of the amine compound reached the maximum was calculated, and the temperature thereof was used as the maximum endothermic temperature of the amine compound.

[4] = Maximum carbon dioxide (CO2) release temperature of amine compound (DSC); type: physicochemical; settings: amine compound with CO2 absorbed, DSC 23 to 250° C., 10° C./min, nitrogen
Procedure: (Maximum Carbon Dioxide (CO2) Release Temperature of Amine Compound)
After the above evaluation of the carbon dioxide absorption capacity was completed, the amine compound was removed from the desiccator to obtain the amine compound with carbon dioxide absorbed. The DSC measurement was performed on the amine compound with carbon dioxide absorbed as follows, to measure the maximum carbon dioxide release temperature of the amine compound. […] From the DSC curve obtained thereby, the temperature at which the endothermic amount associated with the desorption of carbon dioxide reached the maximum was calculated, and the temperature thereof was used as the maximum carbon dioxide release temperature of the amine compound.

[5] = Cycle evaluation (absorption, regeneration at 100° C. for 1 hour); settings: before and after heating at 100° C. for 1 hour; for Weight Retention 1st Time: 1st regeneration; for Weight Retention 2nd Time: 2nd regeneration
Procedure: After the above evaluation of the carbon dioxide absorption capacity was completed, the amine compound was removed from the desiccator, and the amine compound with carbon dioxide absorbed was heated at 100° C. for 1 hour to release the carbon dioxide absorbed and regenerate the amine compound. At this time, weights of the amine compound before and after the heat treatment were measured, and a weight retention (1st time) was calculated.
Then, on the regenerated amine compound, the above evaluation of the carbon dioxide absorption capacity was performed again, and changes of the carbon dioxide concentration in the desiccator were measured after 2 hours and 24 hours (2nd time).
Then, the amine compound was removed from the desiccator, and the amine compound with carbon dioxide absorbed was heated at 100° C. for 1 hour to release carbon dioxide absorbed and regenerate the amine compound again. At this time, the weights of the amine compound before and after the heat treatment were measured, and the weight retention (2nd time) was calculated.
Next, on the regenerated amine compound, the above evaluation of the carbon dioxide absorption capacity was evaluated again, and changes of the carbon dioxide concentration in the desiccator were measured after 2 hours and 24 hours (3rd time).

In the case of `NCC1CCC(CN)CC1` (single isomer, unassigned) [Example 2, 1,4-bis(aminomethyl)cyclohexane], the pKa ([1]; purified water, read-out: pKa) is reported as 10.9, the “Amine Value” [2] is reported as 789 mgKOH/g and the “Maximum Endothermic Temperature” value [3] is reported as 155.6 °C. The “Maximum CO2 Release Temperature” value [4] was 135.2 °C.

With `NCC1CCC(CN)CC1` (single isomer, unassigned) [Example 3, 1,4-bis(aminomethyl)cyclohexane] the pKa [1] was 11.3, the “Amine Value” [2] was 789 mgKOH/g and the “Maximum Endothermic Temperature” value [3] was 155.9 °C. The “Maximum CO2 Release Temperature” value [4] was 130 °C.

In the case of `NCCNCCNCCN` [Comparative Example 2, Triethylenetetramine, reference compound], the “Amine Value” [2] is reported as 1535 mgKOH/g, the “Maximum Endothermic Temperature” value [3] is reported as 184.1 °C and the “Weight Retention 1st Time” value [5] is reported as 98%. For the same compound, the “Weight Retention 2nd Time” value [5] was 95% and the “Maximum CO2 Release Temperature” value [4] was 69.5 °C.

For `N#CCCNCC1CCCC(CN)C1` (stereo not shown) [Example 4], the pKa ([1]; purified water, read-out: pKa) was 10.9.

With `NCCCNCC1CCCC(CNCCCN)C1` (stereo not shown) [Example 5] the “Amine Value” [2] was 844 mgKOH/g, the “Maximum Endothermic Temperature” value [3] was 246.7 °C and the “Weight Retention 1st Time” value [5] was 100%. The “Weight Retention 2nd Time” value [5] was 100% and the “Maximum CO2 Release Temperature” value [4] was 97.8 °C.
